Experimental data from patent US10844077B2, “Thiazolyl-containing compounds for treating proliferative diseases” (Dana-Farber Cancer Institute, Inc., priority 2014, dated 2020).
Values joined by “and” are separate entries in the source; they are usually repeats but may differ in a detail not shown here. Identical values can stand only once.

Tests used:
Assay in all cases: KINATIV assay
Format in all cases: cell-based
Conditions in all cases: 1 μM, 90 minutes, BCWM.1 cells
CDK9 = CDK9 (Homo sapiens (Human), UniProt P50750)
Procedure: (§1) The cells were harvested and lysed. The lysates were directly labeled with an ATP-biotin probe. Bound kinases were identified and quantitated by ACTIVX as described in Patricelli et al., Biochemistry, 2007, 46(2): 350-358. The compounds were tested in duplicates against duplicate or quadruplicate control samples.

BTK = BTK (Homo sapiens (Human), UniProt Q06187)
Procedure: as §1

CK1a = CK1a (Homo sapiens (Human), UniProt P48729)
Procedure: as §1

TAO1, TAO3 = system: TAO1, TAO3
Procedure: as §1

MST1 = MST1 (Homo sapiens (Human), UniProt Q13043)
Procedure: as §1

CDK4 = CDK4 (Homo sapiens (Human), UniProt P11802)
Procedure: as §1

FRAP = FRAP (Homo sapiens (Human), UniProt P42345)
Procedure: as §1

LATS2 = LATS2 (Homo sapiens (Human), UniProt Q9NRM7)
Procedure: as §1

PAN3 = PAN3 (Homo sapiens (Human), UniProt Q58A45)
Procedure: as §1

RSK4 domain1 = RSK4 domain1 (Homo sapiens (Human), UniProt Q9UK32)
Procedure: as §1

ZC2/TNIK = ZC2/TNIK (Homo sapiens (Human), UniProt Q9UKE5)
Procedure: as §1

PIK3C2B = PIK3C2B (Homo sapiens (Human), UniProt O00750)
Procedure: as §1

MELK = MELK (Homo sapiens (Human), UniProt Q14680)
Procedure: as §1

EphB2 = EphB2 (Homo sapiens (Human), UniProt P29323)
Procedure: as §1

JNK1, JNK2, JNK3 = system: JNK1, JNK2, JNK3
Procedure: as §1

MSK2 domain1 = MSK2 domain1 (Homo sapiens (Human), UniProt O75676)
Procedure: as §1

MAP2K7 = MAP2K7 (Homo sapiens (Human), UniProt O14733)
Procedure: as §1

CLK3 = CLK3 (Homo sapiens (Human), UniProt P49761)
Procedure: as §1

YSK1 = YSK1 (Homo sapiens (Human), UniProt O00506)
Procedure: as §1

[1] = system: CaMK2a, CaMK2b, CaMK2d, CaMK2g
Procedure: as §1

MST1, MST2 = system: MST1, MST2
Procedure: as §1

RSKL1 = RSKL1 (Homo sapiens (Human), UniProt Q96S38)
Procedure: as §1

CaMK2g = CaMK2g (Homo sapiens (Human), UniProt Q13555)
Procedure: as §1

MSK1, MSK2 domain1 = system: MSK1, MSK2 domain1
Procedure: as §1

JAK1 = JAK1 (Homo sapiens (Human), UniProt P23458)
Procedure: as §1

STK33 = STK33 (Homo sapiens (Human), UniProt Q9BYT3)
Procedure: as §1

TEC = TEC (Homo sapiens (Human), UniProt P42680)
Procedure: as §1

PI4KA, PI4KAP2 = system: PI4KA, PI4KAP2
Procedure: as §1

PHKg2 = PHKg2 (Homo sapiens (Human), UniProt P15735)
Procedure: as §1

MARK4 = MARK4 (Homo sapiens (Human), UniProt Q96L34)
Procedure: as §1

TBK1 = TBK1 (Homo sapiens (Human), UniProt Q9UHD2)
Procedure: as §1

NEK7 = NEK7 (Homo sapiens (Human), UniProt Q8TDX7)
Procedure: as §1

LRRK2 = LRRK2 (Homo sapiens (Human), UniProt Q5S007)
Procedure: as §1

AKT1 = AKT1 (Homo sapiens (Human), UniProt P31749)
Procedure: as §1

HPK1 = HPK1 (Homo sapiens (Human), UniProt Q92918)
Procedure: as §1

PITSLRE = system: PITSLRE
Procedure: as §1

IKKa = IKKa (Homo sapiens (Human), UniProt O15111)
Procedure: as §1

ULK3 = ULK3 (Homo sapiens (Human), UniProt Q6PHR2)
Procedure: as §1

CDK11, CDK8 = system: CDK11, CDK8
Procedure: as §1

CK1g2 = CK1g2 (Homo sapiens (Human), UniProt P78368)
Procedure: as §1

LYN = LYN (Homo sapiens (Human), UniProt P07948)
Procedure: as §1

Chain of BTK (Q06187 whole entry, looked up): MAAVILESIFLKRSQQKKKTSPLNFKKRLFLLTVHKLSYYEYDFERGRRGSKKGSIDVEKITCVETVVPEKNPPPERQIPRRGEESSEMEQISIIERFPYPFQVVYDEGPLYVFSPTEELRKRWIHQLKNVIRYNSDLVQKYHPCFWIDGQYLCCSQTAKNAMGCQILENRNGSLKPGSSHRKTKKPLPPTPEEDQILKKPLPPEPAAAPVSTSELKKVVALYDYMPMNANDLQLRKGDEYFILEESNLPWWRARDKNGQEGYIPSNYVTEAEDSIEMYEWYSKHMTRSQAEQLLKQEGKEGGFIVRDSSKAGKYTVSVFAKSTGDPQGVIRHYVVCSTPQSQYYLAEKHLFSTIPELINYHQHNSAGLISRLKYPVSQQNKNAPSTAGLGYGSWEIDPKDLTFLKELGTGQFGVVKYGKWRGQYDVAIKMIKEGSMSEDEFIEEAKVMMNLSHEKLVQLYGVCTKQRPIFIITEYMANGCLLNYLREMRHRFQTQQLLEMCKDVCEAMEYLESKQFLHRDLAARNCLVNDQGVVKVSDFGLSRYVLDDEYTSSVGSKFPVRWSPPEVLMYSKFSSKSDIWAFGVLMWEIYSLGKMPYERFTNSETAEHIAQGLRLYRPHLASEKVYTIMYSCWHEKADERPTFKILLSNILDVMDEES
Chain of MARK4 (Q96L34 whole entry): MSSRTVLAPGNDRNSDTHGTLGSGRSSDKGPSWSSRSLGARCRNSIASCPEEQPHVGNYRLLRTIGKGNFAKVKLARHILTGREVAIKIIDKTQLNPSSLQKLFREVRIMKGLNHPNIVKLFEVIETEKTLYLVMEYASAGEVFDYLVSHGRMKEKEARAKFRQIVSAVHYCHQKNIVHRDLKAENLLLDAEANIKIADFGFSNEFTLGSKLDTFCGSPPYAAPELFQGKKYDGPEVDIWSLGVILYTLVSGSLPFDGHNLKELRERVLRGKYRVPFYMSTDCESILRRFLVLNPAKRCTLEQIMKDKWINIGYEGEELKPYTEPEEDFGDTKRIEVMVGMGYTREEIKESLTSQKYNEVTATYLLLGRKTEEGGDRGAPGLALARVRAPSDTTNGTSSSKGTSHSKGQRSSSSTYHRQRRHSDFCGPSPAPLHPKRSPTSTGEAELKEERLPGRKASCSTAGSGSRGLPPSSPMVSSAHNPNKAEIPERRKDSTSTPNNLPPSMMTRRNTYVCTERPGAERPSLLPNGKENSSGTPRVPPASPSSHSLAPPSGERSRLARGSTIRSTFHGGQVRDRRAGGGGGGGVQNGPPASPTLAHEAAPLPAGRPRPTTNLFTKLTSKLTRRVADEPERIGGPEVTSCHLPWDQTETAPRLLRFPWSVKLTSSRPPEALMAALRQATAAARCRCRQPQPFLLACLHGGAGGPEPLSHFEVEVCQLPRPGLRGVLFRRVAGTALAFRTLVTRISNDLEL
Chain of TEC (P42680 whole entry): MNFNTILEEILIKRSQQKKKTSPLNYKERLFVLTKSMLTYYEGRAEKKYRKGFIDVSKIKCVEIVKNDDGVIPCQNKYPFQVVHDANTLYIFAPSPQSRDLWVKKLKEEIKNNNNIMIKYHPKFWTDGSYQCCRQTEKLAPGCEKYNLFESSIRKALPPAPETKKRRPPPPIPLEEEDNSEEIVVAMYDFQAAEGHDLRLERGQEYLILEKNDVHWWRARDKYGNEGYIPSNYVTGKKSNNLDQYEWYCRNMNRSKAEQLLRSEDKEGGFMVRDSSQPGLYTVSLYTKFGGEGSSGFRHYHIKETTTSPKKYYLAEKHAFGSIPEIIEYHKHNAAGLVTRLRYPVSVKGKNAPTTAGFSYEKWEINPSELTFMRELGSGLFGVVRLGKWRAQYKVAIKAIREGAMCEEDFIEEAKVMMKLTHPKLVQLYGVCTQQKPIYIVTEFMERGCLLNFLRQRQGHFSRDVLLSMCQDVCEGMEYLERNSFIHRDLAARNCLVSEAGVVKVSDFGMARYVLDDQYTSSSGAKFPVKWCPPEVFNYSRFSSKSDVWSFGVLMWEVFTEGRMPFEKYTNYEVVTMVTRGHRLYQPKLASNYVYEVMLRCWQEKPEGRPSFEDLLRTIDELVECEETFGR
Chain of LYN (P07948 whole entry): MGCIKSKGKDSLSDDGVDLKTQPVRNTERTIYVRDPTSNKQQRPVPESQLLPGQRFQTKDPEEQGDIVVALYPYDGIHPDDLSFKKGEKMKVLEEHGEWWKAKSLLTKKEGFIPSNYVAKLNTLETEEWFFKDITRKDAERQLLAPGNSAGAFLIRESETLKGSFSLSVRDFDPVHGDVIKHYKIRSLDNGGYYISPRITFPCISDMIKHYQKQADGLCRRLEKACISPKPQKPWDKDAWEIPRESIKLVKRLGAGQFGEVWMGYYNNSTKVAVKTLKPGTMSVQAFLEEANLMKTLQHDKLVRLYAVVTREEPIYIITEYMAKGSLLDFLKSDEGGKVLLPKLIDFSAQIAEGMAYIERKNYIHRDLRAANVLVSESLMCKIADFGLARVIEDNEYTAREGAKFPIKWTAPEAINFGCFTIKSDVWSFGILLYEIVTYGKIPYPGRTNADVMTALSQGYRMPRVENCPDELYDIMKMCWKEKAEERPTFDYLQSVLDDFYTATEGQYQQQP
Chain of HPK1 (Q92918 whole entry): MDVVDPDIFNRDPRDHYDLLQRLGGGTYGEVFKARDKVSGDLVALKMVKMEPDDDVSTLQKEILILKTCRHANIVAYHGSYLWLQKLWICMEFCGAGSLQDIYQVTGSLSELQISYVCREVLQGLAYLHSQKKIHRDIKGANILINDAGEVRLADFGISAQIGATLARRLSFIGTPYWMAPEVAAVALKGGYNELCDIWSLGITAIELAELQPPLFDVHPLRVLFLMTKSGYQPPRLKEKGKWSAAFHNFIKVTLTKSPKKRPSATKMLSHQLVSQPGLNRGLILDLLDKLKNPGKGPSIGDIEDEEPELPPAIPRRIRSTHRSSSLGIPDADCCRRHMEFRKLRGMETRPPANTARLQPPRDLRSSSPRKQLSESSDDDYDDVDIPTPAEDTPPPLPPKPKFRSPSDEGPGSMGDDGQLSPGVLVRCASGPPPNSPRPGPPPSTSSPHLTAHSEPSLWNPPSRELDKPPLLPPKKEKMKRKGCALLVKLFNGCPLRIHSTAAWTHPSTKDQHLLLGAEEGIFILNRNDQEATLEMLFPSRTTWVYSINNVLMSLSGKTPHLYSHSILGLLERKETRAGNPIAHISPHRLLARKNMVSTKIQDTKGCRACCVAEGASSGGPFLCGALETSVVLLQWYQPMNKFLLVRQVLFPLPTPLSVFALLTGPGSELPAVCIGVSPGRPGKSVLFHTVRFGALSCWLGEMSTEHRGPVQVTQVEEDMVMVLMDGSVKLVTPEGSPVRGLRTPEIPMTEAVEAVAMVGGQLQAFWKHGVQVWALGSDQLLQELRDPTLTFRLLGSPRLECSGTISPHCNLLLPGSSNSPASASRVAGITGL
Chain of ULK3 (Q6PHR2 whole entry): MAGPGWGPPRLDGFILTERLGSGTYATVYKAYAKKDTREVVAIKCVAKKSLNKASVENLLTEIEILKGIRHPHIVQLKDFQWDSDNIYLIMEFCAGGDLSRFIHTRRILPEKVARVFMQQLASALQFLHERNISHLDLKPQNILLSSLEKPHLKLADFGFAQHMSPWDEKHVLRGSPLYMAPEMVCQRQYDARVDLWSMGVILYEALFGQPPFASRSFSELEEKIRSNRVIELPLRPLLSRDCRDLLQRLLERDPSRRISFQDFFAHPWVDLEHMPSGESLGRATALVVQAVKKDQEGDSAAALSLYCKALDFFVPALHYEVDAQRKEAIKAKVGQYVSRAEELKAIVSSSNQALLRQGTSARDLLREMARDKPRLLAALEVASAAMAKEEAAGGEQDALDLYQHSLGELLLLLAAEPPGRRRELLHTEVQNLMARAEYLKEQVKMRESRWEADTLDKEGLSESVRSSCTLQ
Chain of RSK4 domain1 (Q9UK32 whole entry, the tested form may be a part): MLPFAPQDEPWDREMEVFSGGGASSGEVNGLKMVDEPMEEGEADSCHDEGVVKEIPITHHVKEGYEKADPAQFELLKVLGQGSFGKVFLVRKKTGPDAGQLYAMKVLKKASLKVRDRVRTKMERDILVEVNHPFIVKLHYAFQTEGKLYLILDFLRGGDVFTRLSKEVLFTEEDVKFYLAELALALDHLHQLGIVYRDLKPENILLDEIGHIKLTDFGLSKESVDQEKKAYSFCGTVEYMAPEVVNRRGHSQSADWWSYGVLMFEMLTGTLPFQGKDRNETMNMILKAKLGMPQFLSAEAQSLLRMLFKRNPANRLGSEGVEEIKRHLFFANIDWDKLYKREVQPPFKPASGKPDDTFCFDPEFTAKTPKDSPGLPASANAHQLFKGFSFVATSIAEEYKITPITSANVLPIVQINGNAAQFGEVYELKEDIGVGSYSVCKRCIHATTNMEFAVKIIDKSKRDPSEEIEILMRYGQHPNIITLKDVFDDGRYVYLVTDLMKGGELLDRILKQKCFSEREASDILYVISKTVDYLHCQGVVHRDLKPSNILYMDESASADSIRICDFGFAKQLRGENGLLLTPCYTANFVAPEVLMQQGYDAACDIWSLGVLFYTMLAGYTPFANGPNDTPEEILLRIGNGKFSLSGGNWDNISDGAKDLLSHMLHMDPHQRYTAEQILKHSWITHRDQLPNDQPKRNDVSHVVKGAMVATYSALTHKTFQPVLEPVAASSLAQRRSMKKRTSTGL
Chain of CK1a (P48729 whole entry): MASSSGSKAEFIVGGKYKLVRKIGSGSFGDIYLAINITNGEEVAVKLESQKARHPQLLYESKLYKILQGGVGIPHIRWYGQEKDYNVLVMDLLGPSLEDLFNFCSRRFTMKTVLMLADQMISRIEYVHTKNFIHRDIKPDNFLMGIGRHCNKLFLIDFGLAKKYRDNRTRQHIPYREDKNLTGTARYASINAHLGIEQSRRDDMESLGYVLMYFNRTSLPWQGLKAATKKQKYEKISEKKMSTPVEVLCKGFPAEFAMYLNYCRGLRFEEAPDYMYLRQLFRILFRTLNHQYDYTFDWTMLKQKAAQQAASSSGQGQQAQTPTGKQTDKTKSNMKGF

C=CC(=O)N1CCC(Cn2ccc(Nc3ncc(C(=O)Nc4c(C)cccc4Cl)s3)n2)C1 (centres unmarked) [II-1]
% change of MS signal compared to control sample (CDK9): −57.0%
% change of MS signal compared to control sample (BTK): 97.1% and >90%
% change of MS signal compared to control sample (CK1a): −14.4%
% change of MS signal compared to control sample (TAO1, TAO3): −17.2%
% change of MS signal compared to control sample (MST1): 13.2%
% change of MS signal compared to control sample (CDK4): 2.2%
% change of MS signal compared to control sample (FRAP): 8.6%
% change of MS signal compared to control sample (LATS2): −2.9%
% change of MS signal compared to control sample (PAN3): −7.0%
% change of MS signal compared to control sample (RSK4 domain1): −22.4%
% change of MS signal compared to control sample (ZC2/TNIK): −10.0%
% change of MS signal compared to control sample (PIK3C2B): −5.8%
% change of MS signal compared to control sample (MELK): 4.2%
% change of MS signal compared to control sample (EphB2): >90%
% change of MS signal compared to control sample (JNK1, JNK2, JNK3): −23.5%
% change of MS signal compared to control sample (MSK2 domain1): −33.9%
% change of MS signal compared to control sample (MAP2K7): −0.6%
% change of MS signal compared to control sample (CLK3): −22.6%
% change of MS signal compared to control sample (YSK1): −27.4%
% change of MS signal compared to control sample [1]: 2.5%
% change of MS signal compared to control sample (MST1, MST2): 3.1%
% change of MS signal compared to control sample (RSKL1): 13.7%
% change of MS signal compared to control sample (CaMK2g): −17.5%
% change of MS signal compared to control sample (MSK1, MSK2 domain1): −37.4%
% change of MS signal compared to control sample (JAK1): 5.4%
% change of MS signal compared to control sample (STK33): 11.0%
% change of MS signal compared to control sample (TEC): 91.5% and 80.8%
% change of MS signal compared to control sample (PI4KA, PI4KAP2): −45.7%
% change of MS signal compared to control sample (PHKg2): −9.1%
% change of MS signal compared to control sample (MARK4): 12.8% and 9.7%
% change of MS signal compared to control sample (TBK1): −30.2%
% change of MS signal compared to control sample (NEK7): −8.5%
% change of MS signal compared to control sample (LRRK2): −20.9%
% change of MS signal compared to control sample (AKT1): −17.8%
% change of MS signal compared to control sample (HPK1): 23.0% and 12.1%
% change of MS signal compared to control sample (PITSLRE): −16.1%
% change of MS signal compared to control sample (IKKa): −2.1%
% change of MS signal compared to control sample (ULK3): 22.4% and 22.8%
% change of MS signal compared to control sample (CDK11, CDK8): −9.2%
% change of MS signal compared to control sample (CK1g2): −1.1%
% change of MS signal compared to control sample (LYN): 88.1% and >90%
